The record followed here is ChEMBL document CHEMBL1148642, “(2S,3S)-3-Amino-4-(3,3-difluoropyrrolidin-1-yl)-N,N-dimethyl-4-oxo-2-(4-[1,2,4]triazolo[1,5-a]-pyridin-6-ylphenyl)butanamide: a selective alpha-amino amide dipeptidyl peptidase IV inhibitor for the treatment of type 2 diabetes” (J Med Chem, 2006).

pIC50: −log10 of the molar value. Where only a bound is given, the exact number is not on record here.

Chain of Xaa-Pro aminopeptidase 1 (Q9NQW7 whole entry): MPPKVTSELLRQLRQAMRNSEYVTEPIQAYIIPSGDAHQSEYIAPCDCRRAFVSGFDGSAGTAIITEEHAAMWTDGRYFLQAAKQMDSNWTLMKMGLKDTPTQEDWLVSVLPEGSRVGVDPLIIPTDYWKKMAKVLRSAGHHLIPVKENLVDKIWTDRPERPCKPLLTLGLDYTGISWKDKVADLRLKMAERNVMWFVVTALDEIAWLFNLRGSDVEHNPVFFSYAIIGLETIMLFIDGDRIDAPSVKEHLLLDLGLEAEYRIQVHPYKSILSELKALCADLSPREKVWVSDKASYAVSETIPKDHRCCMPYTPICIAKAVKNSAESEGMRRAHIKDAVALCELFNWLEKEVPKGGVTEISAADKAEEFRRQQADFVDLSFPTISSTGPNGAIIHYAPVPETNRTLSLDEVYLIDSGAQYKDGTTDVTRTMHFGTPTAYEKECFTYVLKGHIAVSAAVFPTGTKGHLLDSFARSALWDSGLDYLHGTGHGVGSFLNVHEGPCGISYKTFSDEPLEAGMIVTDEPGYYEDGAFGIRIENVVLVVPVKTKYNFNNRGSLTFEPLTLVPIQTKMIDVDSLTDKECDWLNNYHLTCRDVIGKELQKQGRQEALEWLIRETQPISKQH
T1 sequence (P27487 whole entry): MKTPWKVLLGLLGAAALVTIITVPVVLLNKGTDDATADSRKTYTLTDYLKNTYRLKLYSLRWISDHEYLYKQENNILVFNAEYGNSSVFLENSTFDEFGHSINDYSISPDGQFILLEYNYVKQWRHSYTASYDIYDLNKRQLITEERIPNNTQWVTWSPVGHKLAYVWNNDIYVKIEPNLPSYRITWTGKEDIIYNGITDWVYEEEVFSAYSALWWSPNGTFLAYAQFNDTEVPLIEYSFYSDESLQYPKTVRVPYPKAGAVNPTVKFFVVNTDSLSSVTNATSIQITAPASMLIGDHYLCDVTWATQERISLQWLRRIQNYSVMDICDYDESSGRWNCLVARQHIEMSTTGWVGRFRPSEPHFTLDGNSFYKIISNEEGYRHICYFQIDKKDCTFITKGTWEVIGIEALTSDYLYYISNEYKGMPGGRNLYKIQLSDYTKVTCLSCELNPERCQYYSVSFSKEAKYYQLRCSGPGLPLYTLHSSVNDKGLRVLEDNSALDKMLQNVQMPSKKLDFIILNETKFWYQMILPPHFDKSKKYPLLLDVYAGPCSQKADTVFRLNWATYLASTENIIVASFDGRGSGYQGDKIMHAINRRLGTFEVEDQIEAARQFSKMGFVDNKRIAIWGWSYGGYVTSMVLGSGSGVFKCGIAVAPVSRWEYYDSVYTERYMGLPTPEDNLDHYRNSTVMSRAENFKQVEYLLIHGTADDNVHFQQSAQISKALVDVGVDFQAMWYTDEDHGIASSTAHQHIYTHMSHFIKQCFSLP

One series concerns the target T1, Dipeptidyl peptidase 4 (Homo sapiens, UniProt P27487). Description: Inhibition of DPP4 in presence of 50% human serum.
Conditions: not given
Consider `CN(C)C(=O)[C@@H](c1ccc(-c2ccc3nccn3c2)cc1)[C@H](N)C(=O)N1CC[C@H](F)C1`, for which the pIC50 (in general, the negative decadic logarithm of the IC50, by convention in mol/L) is 6.88.

Regarding `CN(C)C(=O)[C@@H](c1ccc(-c2ccc3nccn3n2)cc1)[C@H](N)C(=O)N1CC[C@H](F)C1`, the negative logarithm of the IC50 (pIC50) is 6.75.

System in the next series: not listed separately
Description: Cmax in dog at 2 mg/kg, po. Type of series: ADME, organism-based, Canis lupus familiaris. On the set-up: dose 2 mg/kg, route oral. As to conditions: in vivo.
Consider `CN(C)C(=O)[C@@H](c1ccc(-c2ccc3ncnn3c2)cc1)[C@H](N)C(=O)N1CC[C@H](F)C1.O=C(O)C(F)(F)F`, for which the Cmax (in general, the maximum level reached in the sampled fluid or tissue) is 6.6 µM.

Another series has as its target T1, Dipeptidyl peptidase 4. Nature of the series: Inhibition of DPP4.
Conditions: not given
The compound `CN(C)C(=O)[C@@H](c1ccc(-c2ccc3nccn3c2)cc1)[C@H](N)C(=O)N1CC[C@H](F)C1` showed a pIC50 of 7.89.

On to `CN(C)C(=O)[C@@H](c1ccc(-c2ccc3nccn3n2)cc1)[C@H](N)C(=O)N1CC[C@H](F)C1`, for which the negative logarithm of the IC50 (pIC50) is 7.89.

A further series deals with Canis familiaris. Nature of the series: AUC in dog at 2 mg/kg, po normalized to 1 mg/kg. As to conditions: in vivo. Type of series: ADME, organism-based, Canis lupus familiaris, Plasma.
On to `CN(C)C(=O)[C@@H](c1ccc(-c2ccc3ncnn3c2)cc1)[C@H](N)C(=O)N1CC[C@H](F)C1.O=C(O)C(F)(F)F`, for which the AUC (commonly the area under the concentration-time curve, a measure of exposure) stood at 12 µM·h.

System in the next series: not listed separately
Description: Cmax in rat at 2 mg/kg, po. Type of series: ADME, organism-based. On the set-up: dose 2 mg/kg, route oral. As to conditions: in vivo.
`CN(C)C(=O)[C@@H](c1ccc(-c2ccc3ncnn3c2)cc1)[C@H](N)C(=O)N1CC[C@H](F)C1.O=C(O)C(F)(F)F` returned a Cmax of 2300 nM.

The target in another series is Dipeptidyl peptidase 9 (Homo sapiens, UniProt Q86TI2). Description: Inhibition of DPP9.
Chain of Dipeptidyl peptidase 9 (Q86TI2 whole entry): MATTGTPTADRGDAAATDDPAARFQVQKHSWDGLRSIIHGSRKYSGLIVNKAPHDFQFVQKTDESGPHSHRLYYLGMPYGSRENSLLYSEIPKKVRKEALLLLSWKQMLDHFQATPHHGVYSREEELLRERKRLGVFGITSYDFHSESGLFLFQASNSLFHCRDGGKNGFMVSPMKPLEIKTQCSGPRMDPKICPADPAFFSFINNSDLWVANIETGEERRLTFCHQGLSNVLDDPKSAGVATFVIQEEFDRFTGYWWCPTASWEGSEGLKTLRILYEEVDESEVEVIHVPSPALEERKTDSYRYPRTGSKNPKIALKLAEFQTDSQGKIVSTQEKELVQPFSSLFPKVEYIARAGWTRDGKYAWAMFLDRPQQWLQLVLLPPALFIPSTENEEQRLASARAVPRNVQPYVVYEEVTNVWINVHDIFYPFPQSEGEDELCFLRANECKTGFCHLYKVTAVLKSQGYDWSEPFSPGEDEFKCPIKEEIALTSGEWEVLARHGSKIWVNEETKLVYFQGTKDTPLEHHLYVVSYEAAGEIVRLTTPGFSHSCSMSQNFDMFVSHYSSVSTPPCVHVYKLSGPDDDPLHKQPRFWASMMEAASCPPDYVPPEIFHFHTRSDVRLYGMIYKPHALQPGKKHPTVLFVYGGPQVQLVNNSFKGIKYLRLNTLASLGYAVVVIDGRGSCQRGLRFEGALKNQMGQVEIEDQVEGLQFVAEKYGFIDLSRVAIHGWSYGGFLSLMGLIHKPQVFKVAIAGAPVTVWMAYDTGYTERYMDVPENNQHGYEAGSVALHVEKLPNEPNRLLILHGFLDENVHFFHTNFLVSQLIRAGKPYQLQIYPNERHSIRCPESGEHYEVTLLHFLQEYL
Conditions: not given
With `CN(C)C(=O)[C@@H](c1ccc(-c2ccc3ncnn3c2)cc1)[C@H](N)C(=O)N1CC[C@H](F)C1.O=C(O)C(F)(F)F`, the pIC50 was less than 4.00.

Turning to `CN(C)C(=O)[C@@H](c1ccc(-c2ccc3nccn3c2)cc1)[C@H](N)C(=O)N1CC[C@H](F)C1`, the pIC50 was less than 4.00.

Take `CN(C)C(=O)[C@@H](c1ccc(-c2ccc3nccn3n2)cc1)[C@H](N)C(=O)N1CC[C@H](F)C1`: the pIC50 is less than 4.00.

System in a further series: not listed separately
Description: Plasma clearance in rat at 1 mg/kg, iv or 2 mg/kg, po. It counts as ADME, organism-based.
Conditions: not given
The compound `CN(C)C(=O)[C@@H](c1ccc(-c2ccc3ncnn3c2)cc1)[C@H](N)C(=O)N1CC[C@H](F)C1.O=C(O)C(F)(F)F` yielded a clearance of 7 mL/min/kg.

The test system of a further series is Rattus norvegicus. Nature of the series: AUC in rat at 2 mg/kg, po normalized to 1 mg/kg. Type of series: ADME, organism-based, Plasma. As to conditions: in vivo.
As to `CN(C)C(=O)[C@@H](c1ccc(-c2ccc3ncnn3c2)cc1)[C@H](N)C(=O)N1CC[C@H](F)C1.O=C(O)C(F)(F)F`, the AUC worked out at 2.4 µM·h.

System in a further series: not listed separately
Nature of the series: Half life in rat at 1 mg/kg, iv or 2 mg/kg, po. Type of series: ADME, organism-based. The note with it: in vivo.
For the compound `CN(C)C(=O)[C@@H](c1ccc(-c2ccc3ncnn3c2)cc1)[C@H](N)C(=O)N1CC[C@H](F)C1.O=C(O)C(F)(F)F`, the half-life (commonly the time in which the quantity being followed falls by half) was 120 min.

A further series concerns the target Xaa-Pro aminopeptidase 1 (Homo sapiens, UniProt Q9NQW7). Nature of the series: Inhibition of aminopeptidase P.
Conditions: not given
Compound `CN(C)C(=O)[C@@H](c1ccc(-c2ccc3ncnn3c2)cc1)[C@H](N)C(=O)N1CC[C@H](F)C1.O=C(O)C(F)(F)F` gave a negative-log IC50 (pIC50) of less than 4.40.

The compound `CN(C)C(=O)[C@@H](c1ccc(-c2ccc3nccn3c2)cc1)[C@H](N)C(=O)N1CC[C@H](F)C1` gave a pIC50 of less than 4.40.

`CN(C)C(=O)[C@@H](c1ccc(-c2ccc3nccn3n2)cc1)[C@H](N)C(=O)N1CC[C@H](F)C1` had a pIC50 of less than 4.40.

System in the next series: not listed separately
Nature of the series: Plasma clearance in dog at 1 mg/kg, iv or 2 mg/kg, po.
Conditions: not given
Type of series: ADME, organism-based, Canis lupus familiaris.
In turn, `CN(C)C(=O)[C@@H](c1ccc(-c2ccc3ncnn3c2)cc1)[C@H](N)C(=O)N1CC[C@H](F)C1.O=C(O)C(F)(F)F` had a clearance of 3.1 mL/min/kg.

The next series deals with Dipeptidyl peptidase 2 (Homo sapiens, UniProt Q9UHL4). Description: Inhibition of QPP.
Conditions: not given
On to `CN(C)C(=O)[C@@H](c1ccc(-c2ccc3ncnn3c2)cc1)[C@H](N)C(=O)N1CC[C@H](F)C1.O=C(O)C(F)(F)F`, for which the pIC50 was less than 4.00.

Turning to `CN(C)C(=O)[C@@H](c1ccc(-c2ccc3nccn3c2)cc1)[C@H](N)C(=O)N1CC[C@H](F)C1`, the pIC50 was less than 4.00.

Consider `CN(C)C(=O)[C@@H](c1ccc(-c2ccc3nccn3n2)cc1)[C@H](N)C(=O)N1CC[C@H](F)C1`, for which the pIC50 was less than 4.00.

The target of the next series is T2, Xaa-Pro dipeptidase (Homo sapiens, UniProt P12955).
T2 sequence (P12955 whole entry): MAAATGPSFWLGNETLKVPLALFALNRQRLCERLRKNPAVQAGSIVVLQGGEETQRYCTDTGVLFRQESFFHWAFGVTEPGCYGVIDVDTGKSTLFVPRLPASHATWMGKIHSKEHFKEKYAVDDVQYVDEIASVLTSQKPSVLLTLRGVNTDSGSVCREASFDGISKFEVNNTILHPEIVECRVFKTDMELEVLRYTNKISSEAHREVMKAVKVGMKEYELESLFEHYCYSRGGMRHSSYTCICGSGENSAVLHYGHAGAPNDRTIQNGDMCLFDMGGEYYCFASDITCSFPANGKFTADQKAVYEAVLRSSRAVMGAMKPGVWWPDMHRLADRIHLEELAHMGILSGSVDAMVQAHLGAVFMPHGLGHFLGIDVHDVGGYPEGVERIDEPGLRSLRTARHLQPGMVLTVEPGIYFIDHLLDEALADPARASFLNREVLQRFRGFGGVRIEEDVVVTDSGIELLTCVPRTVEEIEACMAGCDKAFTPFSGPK
Description: Inhibition of prolidase.
Conditions: not given
The compound `CN(C)C(=O)[C@@H](c1ccc(-c2ccc3ncnn3c2)cc1)[C@H](N)C(=O)N1CC[C@H](F)C1.O=C(O)C(F)(F)F` showed a pIC50 of less than 4.40.

`CN(C)C(=O)[C@@H](c1ccc(-c2ccc3nccn3c2)cc1)[C@H](N)C(=O)N1CC[C@H](F)C1` gave a pIC50 of less than 4.40.

Take `CN(C)C(=O)[C@@H](c1ccc(-c2ccc3nccn3n2)cc1)[C@H](N)C(=O)N1CC[C@H](F)C1`: the pIC50 was less than 4.40.

A further series deals with T3, Prolyl endopeptidase FAP (Homo sapiens, UniProt Q12884).
T3 sequence (Q12884 whole entry): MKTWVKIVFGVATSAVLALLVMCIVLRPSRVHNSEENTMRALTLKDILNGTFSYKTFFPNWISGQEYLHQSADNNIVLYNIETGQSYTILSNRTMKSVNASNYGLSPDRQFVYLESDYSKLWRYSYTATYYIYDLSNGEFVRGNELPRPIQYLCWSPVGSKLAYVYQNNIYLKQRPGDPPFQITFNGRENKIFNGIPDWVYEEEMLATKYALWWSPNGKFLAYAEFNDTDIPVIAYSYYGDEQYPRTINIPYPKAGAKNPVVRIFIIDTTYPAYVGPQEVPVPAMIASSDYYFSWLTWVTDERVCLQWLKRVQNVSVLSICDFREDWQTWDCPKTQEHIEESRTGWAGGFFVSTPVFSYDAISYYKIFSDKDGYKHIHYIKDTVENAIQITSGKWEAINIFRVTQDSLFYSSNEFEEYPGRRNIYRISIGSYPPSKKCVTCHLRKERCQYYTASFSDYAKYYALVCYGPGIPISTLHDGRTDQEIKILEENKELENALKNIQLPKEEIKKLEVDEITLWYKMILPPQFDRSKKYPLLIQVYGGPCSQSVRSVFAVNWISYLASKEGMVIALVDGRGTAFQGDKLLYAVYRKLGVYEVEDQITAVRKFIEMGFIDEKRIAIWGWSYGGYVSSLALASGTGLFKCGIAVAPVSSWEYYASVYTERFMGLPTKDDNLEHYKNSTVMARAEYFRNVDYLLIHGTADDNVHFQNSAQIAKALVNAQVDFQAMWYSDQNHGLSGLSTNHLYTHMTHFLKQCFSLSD
Nature of the series: Inhibition of FAP.
Conditions: not given
For `CN(C)C(=O)[C@@H](c1ccc(-c2ccc3ncnn3c2)cc1)[C@H](N)C(=O)N1CC[C@H](F)C1.O=C(O)C(F)(F)F`, the pIC50 was less than 4.40.

In turn, `CN(C)C(=O)[C@@H](c1ccc(-c2ccc3nccn3c2)cc1)[C@H](N)C(=O)N1CC[C@H](F)C1` gave a pIC50 of less than 4.40.

As for `CN(C)C(=O)[C@@H](c1ccc(-c2ccc3nccn3n2)cc1)[C@H](N)C(=O)N1CC[C@H](F)C1`, the pIC50 was less than 4.40.

System in another series: not listed separately
Description: Half life in dog at 1 mg/kg, iv or 2 mg/kg, po. As to conditions: in vivo. Type of series: ADME, organism-based, Canis lupus familiaris.
Take `CN(C)C(=O)[C@@H](c1ccc(-c2ccc3ncnn3c2)cc1)[C@H](N)C(=O)N1CC[C@H](F)C1.O=C(O)C(F)(F)F`: the half-life is 144 min.

For another series, the target named is Dipeptidyl peptidase 8 (Homo sapiens, UniProt Q6V1X1). Description: Inhibition of DPP8.
Chain of Dipeptidyl peptidase 8 (Q6V1X1 whole entry): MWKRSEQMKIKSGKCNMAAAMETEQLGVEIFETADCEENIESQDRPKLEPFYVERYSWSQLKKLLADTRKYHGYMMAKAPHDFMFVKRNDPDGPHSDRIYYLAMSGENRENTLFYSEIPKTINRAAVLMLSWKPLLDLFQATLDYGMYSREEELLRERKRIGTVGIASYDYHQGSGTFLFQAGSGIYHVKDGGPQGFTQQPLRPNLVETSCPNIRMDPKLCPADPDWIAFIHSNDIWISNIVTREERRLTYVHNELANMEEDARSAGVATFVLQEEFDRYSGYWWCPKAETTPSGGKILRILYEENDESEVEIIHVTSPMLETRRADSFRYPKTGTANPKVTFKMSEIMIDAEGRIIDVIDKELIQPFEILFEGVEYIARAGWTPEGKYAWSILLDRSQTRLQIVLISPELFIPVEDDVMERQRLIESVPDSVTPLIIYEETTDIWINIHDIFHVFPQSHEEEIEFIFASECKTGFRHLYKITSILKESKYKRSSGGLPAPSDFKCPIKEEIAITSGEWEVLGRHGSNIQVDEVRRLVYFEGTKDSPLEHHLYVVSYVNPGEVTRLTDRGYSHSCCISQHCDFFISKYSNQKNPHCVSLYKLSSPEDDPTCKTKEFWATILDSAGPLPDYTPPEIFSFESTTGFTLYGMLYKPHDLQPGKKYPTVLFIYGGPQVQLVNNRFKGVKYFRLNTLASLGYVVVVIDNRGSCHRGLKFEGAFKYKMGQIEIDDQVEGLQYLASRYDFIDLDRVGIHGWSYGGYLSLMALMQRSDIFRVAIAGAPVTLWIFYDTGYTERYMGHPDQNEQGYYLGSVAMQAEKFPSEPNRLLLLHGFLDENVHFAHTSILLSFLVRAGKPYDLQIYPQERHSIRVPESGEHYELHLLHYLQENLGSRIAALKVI
Conditions: not given
As for `CN(C)C(=O)[C@@H](c1ccc(-c2ccc3ncnn3c2)cc1)[C@H](N)C(=O)N1CC[C@H](F)C1.O=C(O)C(F)(F)F`, the pIC50 is less than 4.00.

As to `CN(C)C(=O)[C@@H](c1ccc(-c2ccc3nccn3c2)cc1)[C@H](N)C(=O)N1CC[C@H](F)C1`, the pIC50 was less than 4.00.

The compound `CN(C)C(=O)[C@@H](c1ccc(-c2ccc3nccn3n2)cc1)[C@H](N)C(=O)N1CC[C@H](F)C1` had a pIC50 of less than 4.00.
